This note sets out measurements from patent publication US9145399B2, “Substituted bicyclic triazole derivatives as gamma secretase modulators” (Janssen Pharmaceuticals, Inc., priority 2010, dated 2015).

pIC50: −log10 of the molar value.

In data set [1] the test system is Aβ42. The data set is described as follows: Screening for γ-secretase-modulating activity in SKNBE2 cells carrying APP 695 wild type: Aβ42 in cell supernatant (Alphalisa). It counts as cell-based. To be noted: Homo sapiens, SKNBE2, SKNBE2 cells carrying APP 695 wild type, overnight incubation. The gist of the method: (§1)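 SKNBE2 cells expressing wild-type APP695 were incubated overnight at 37° C with test compound at several concentrations. Aβ42 and Aβtotal in supernatant were measured by AlphaLISA sandwich immunoassays. IC50 came from 4-parameter non-linear fits of percent of compound-free control versus log concentration.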
On the technique in general: Bead proximity is the source of the signal in Alpha formats.

Data set [2] relates to Aβtotal. Nature of the data set: Screening for γ-secretase-modulating activity in SKNBE2 cells carrying APP 695 wild type: Aβtotal in cell supernatant (Alphalisa). Format: cell-based. As to conditions: Homo sapiens, overnight incubation. The gist of the method:
as §1

Usually pIC50 stands for −log10 of the IC50, conventionally taken in molar units. A low value points to a large IC50. For orientation: melting point means the temperature of the solid-liquid transition. In turn, `COc1cc(Nc2nc3n(n2)CCCC3c2cccc(C(F)(F)F)c2)ccc1-n1cnc(C)c1` (stereo not drawn) [Compound 34, 5,6,7,8-tetrahydro-N-[3-methoxy-4-(4-methyl-1H-imidazol-1-yl)phenyl]-8-[3-(trifluoromethyl)phenyl]-[1,2,4]triazolo[1,5-a]pyridin-2-amine] gave a melting point of 224.9 °C. This molecule gave a negative logarithm of the IC50 (pIC50) in data set [1] of 8.00. For the same molecule, the pIC50 in data set [2] was 5.12.
Molecule `COc1cc(Nc2nc3n(n2)CCCC3c2cc(C(F)(F)F)ccc2F)ccc1-n1cnc(C)c1` (stereo not drawn) [Compound 48, 8-[2-fluoro-5-(trifluoromethyl)phenyl]-5,6,7,8-tetrahydro-N-[3-methoxy-4-(4-methyl-1H-imidazol-1-yl)phenyl]-[1,2,4]triazolo[1,5-a]pyridin-2-amine] came in with a melting point of 204.4 °C. In data set [1], this molecule had a pIC50 of 7.52. In data set [2], this molecule had a pIC50 of 5.24.
With `COc1cc(Nc2nc3c(-c4ccccc4Cl)cccn3n2)ccc1-n1cnc(C)c1` [Compound 7, 8-(2-chlorophenyl)-N-[3-methoxy-4-(4-methyl-1H-imidazol-1-yl)phenyl]-[1,2,4]triazolo[1,5-a]pyridin-2-amine], the melting point amounted to 235 °C. The pIC50 in data set [1] is 8.15. The molecule also showed a pIC50 in data set [2] of less than 5.00.
In the same order, the values of `Cc1cc(-c2ccc(Nc3nc4n(n3)CCOC4c3ccccc3Cl)cc2)ccn1` (stereo not drawn) [Compound 76, 8-(2-chlorophenyl)-5,6-dihydro-N-[4-(2-methyl-4-pyridinyl)phenyl]-8H-[1,2,4]triazolo[5,1-c][1,4]oxazin-2-amine] are 216.1 °C, 7.34 and less than 5.00.
In the same order, the values of `COc1cc(Nc2nc3n(n2)CCCC3c2ccccc2Cl)ccc1-c1ccnc(C)c1` (stereo not drawn) [Compound 77] are 167.9 °C, 7.40 and less than 5.00.
Regarding `Cc1cc(-c2ccc(Nc3nc4n(n3)CCCC4c3c(F)cccc3Cl)cc2)ccn1` (stereo not drawn) [Compound 116, 8-(2-chloro-6-fluorophenyl)-5,6,7,8-tetrahydro-N-[4-(2-methyl-4-pyridinyl)phenyl]-[1,2,4]triazolo[1,5-a]pyridin-2-amine], the melting point turned out to be 234.4 °C. Further, the negative logarithm of the IC50 (pIC50) in data set [1] is 7.15. The molecule further showed a negative-log IC50 (pIC50) in data set [2] of less than 5.00.
In turn, `COc1cc(Nc2nc3c(-c4ccc(F)cc4C(F)(F)F)cccn3n2)ccc1-n1cnc(C)c1` [Compound 6, 8-[4-fluoro-2-(trifluoromethyl)phenyl]-N-[3-methoxy-4-(4-methyl-1H-imidazol-1-yl)phenyl]-[1,2,4]triazolo[1,5-a]pyridin-2-amine] returned a melting point of 238.4 °C. In addition, in data set [1], the pIC50 is 8.15. Further, in data set [2], the negative logarithm of the IC50 (pIC50) is 5.13.
In the same order, the values of `COc1cc(Nc2nc3n(n2)CCNC3c2ccccc2C(F)(F)F)ccc1-n1cnc(C)c1` (stereo not drawn) [Compound 9, 5,6,7,8-tetrahydro-N-[3-methoxy-4-(4-methyl-1H-imidazol-1-yl)phenyl]-8-[2-(trifluoromethyl)phenyl]-[1,2,4]triazolo[1,5-a]pyrazin-2-amine] are 248 °C, 7.19 and less than 5.00.
In the case of `COc1cc(Nc2nc3n(n2)CCOC3c2ccc(F)cc2F)ccc1-c1ccnc(C)c1` (stereo not drawn) [Compound 100, 8-(2,4-difluorophenyl)-5,6-dihydro-N-[3-methoxy-4-(2-methyl-4-pyridinyl)phenyl]-8H-[1,2,4]triazolo[5,1-c][1,4]oxazin-2-amine], the melting point was determined as 217.2 °C. The molecule further showed a pIC50 in data set [1] of 7.44. The molecule also gave a pIC50 in data set [2] of less than 5.00.
In the same order, the values of `COc1cc(Nc2nc3n(n2)CCC(C)C3c2ccc(F)cc2)ccc1-c1ccnc(C)c1` (racemic) [Compound 101, 8-(4-fluorophenyl)-5,6,7,8-tetrahydro-N-[3-methoxy-4-(2-methyl-4-pyridinyl)phenyl]-7-methyl-[1,2,4]triazolo[1,5-a]pyridin-2-amine] are 122.1 °C, 7.36 and less than 5.00.
In the same order, the values of `COc1cc(Nc2nc3n(n2)CCOC3c2ccccc2C(F)(F)F)ccc1-n1cnc(C)c1` (stereo not drawn) [Compound 47, 5,6-dihydro-N-[3-methoxy-4-(4-methyl-1H-imidazol-1-yl)phenyl]-8-[2-(trifluoromethyl)phenyl]-8H-[1,2,4]triazolo[5,1-c][1,4]oxazin-2-amine] are 202.9 °C, 7.26 and less than 5.00.
For `COc1cc(Nc2nc3c(-c4ccccc4C(F)(F)F)cccn3n2)ccc1-c1ocnc1C` [Compound 23, N-[3-methoxy-4-(4-methyl-5-oxazolyl)phenyl]-8-[2-(trifluoromethyl)phenyl]-[1,2,4]triazolo[1,5-a]pyridin-2-amine], the melting point worked out at 220.3 °C. In data set [1], this molecule showed a pIC50 of 7.89. In data set [2], the pIC50 is less than 5.00.
In the same order, the values of `COc1cc(Nc2nc3n(n2)CCCC3c2ccccc2F)ccc1-n1cnc(C)c1` (stereo not drawn) [Compound 49, 8-(2-fluorophenyl)-5,6,7,8-tetrahydro-N-[3-methoxy-4-(4-methyl-1H-imidazol-1-yl)phenyl]-[1,2,4]triazolo[1,5-a]pyridin-2-amine] are 188.3 °C, 7.54 and less than 5.00.
In the same order, the values of `COc1cc(Nc2nc3n(n2)CCCC3c2cccc(F)c2)ccc1-n1cnc(C)c1` (stereo not drawn) [Compound 30, 8-(3-fluorophenyl)-5,6,7,8-tetrahydro-N-[3-methoxy-4-(4-methyl-1H-imidazol-1-yl)phenyl]-[1,2,4]triazolo[1,5-a]pyridin-2-amine] are 200.6 °C, 7.31 and less than 5.00.
In the same order, the values of `COc1cc(Nc2nc3n(n2)CCCC3c2ccccc2C(F)(F)F)ccc1-c1ocnc1C` (stereo not drawn) [Compound 38, 5,6,7,8-tetrahydro-N-[3-methoxy-4-(4-methyl-5-oxazolyl)phenyl]-8-[2-(trifluoromethyl)phenyl]-[1,2,4]triazolo[1,5-a]pyridin-2-amine] are 258.5 °C, 7.54 and less than 5.00.
Take `COc1cc(Nc2nc3n(n2)CCCC3c2ccc(F)cc2)ccc1-c1ccnc(C)c1` (stereo not drawn) [Compound 1, 8-(4-fluorophenyl)-5,6,7,8-tetrahydro-N-[3-methoxy-4-(2-methyl-4-pyridinyl)phenyl]-[1,2,4]triazolo[1,5-a]pyridin-2-amine]: the melting point turned out to be 207.1 °C. In data set [1], this molecule gave a pIC50 of 7.80. In data set [2], this molecule gave a pIC50 of 5.11.
In turn, `COc1cc(Nc2nc3n(n2)CCOC3c2ccc(F)cc2C)ccc1-c1ccnc(C)c1` (stereo not drawn) [Compound 92, 8-(4-fluoro-2-methylphenyl)-5,6-dihydro-N-[3-methoxy-4-(2-methyl-4-pyridinyl)phenyl]-8H-[1,2,4]triazolo[5,1-c][1,4]oxazin-2-amine] had a melting point of 201.9 °C. This molecule also showed a pIC50 in data set [1] of 7.68. The pIC50 in data set [2] was less than 5.00.
The molecule `COc1cc(Nc2nc3n(n2)CCCC3c2cc(C(F)(F)F)ccc2F)ccc1-c1ccnc(C)c1` (stereo not drawn) [Compound 182, 8-[2-fluoro-5-(trifluoromethyl)phenyl]-5,6,7,8-tetrahydro-N-[3-methoxy-4-(2-methyl-4-pyridinyl)phenyl]-[1,2,4]triazolo[1,5-a]pyridin-2-amine] registered a melting point of 173.1 °C. In addition, the negative-log IC50 (pIC50) in data set [1] is 7.36. The pIC50 in data set [2] is less than 5.00.
With `FC(F)(F)c1ccccc1C1CCCn2nc(Nc3ccc(-c4ccncc4)cc3)nc21` (stereo not drawn) [Compound 75, 5,6,7,8-tetrahydro-N-[4-(4-pyridinyl)phenyl]-8-[2-(trifluoromethyl)phenyl]-[1,2,4]triazolo[1,5-a]pyridin-2-amine], the melting point is 240.4 °C. The molecule also gave a pIC50 in data set [1] of 6.59. In data set [2], this molecule gave a pIC50 of less than 5.00.
In turn, `COc1cc(Nc2nc3n(n2)CCCC3c2ccc(F)cc2C)ccc1-n1cnc(C)c1` (stereo not drawn) [Compound 32, 8-(4-fluoro-2-methylphenyl)-5,6,7,8-tetrahydro-N-[3-methoxy-4-(4-methyl-1H-imidazol-1-yl)phenyl]-[1,2,4]triazolo[1,5-a]pyridin-2-amine] came in with a melting point of 249 °C. The molecule also gave a pIC50 in data set [1] of 7.92. In addition, the pIC50 in data set [2] was 5.03.
In the same order, the values of `COc1cc(Nc2nc3c(-c4ccccc4C(F)(F)F)nccn3n2)ccc1-n1cnc(C)c1` [Compound 8, N-[3-methoxy-4-(4-methyl-1H-imidazol-1-yl)phenyl]-8-[2-(trifluoromethyl)phenyl]-[1,2,4]triazolo[1,5-a]pyrazin-2-amine] are 206.9 °C, 7.49 and 5.12.
The molecule `Cc1cc(-c2ccc(Nc3nc4n(n3)CCCC4c3cc(C(F)(F)F)ccc3F)cc2)ccn1` (stereo not drawn) [Compound 114, 8-[2-fluoro-5-(trifluoromethyl)phenyl]-5,6,7,8-tetrahydro-N-[4-(2-methyl-4-pyridinyl)phenyl]-[1,2,4]triazolo[1,5-a]pyridin-2-amine] registered a melting point of 194.4 °C. Moreover, the pIC50 in data set [1] is 7.39. In addition, the pIC50 in data set [2] was less than 5.00.
Turning to `COc1cc(C2CCCn3nc(Nc4ccc(-c5ccnc(C)c5)cc4)nc32)ccc1F` (stereo not drawn) [Compound 106, 8-(4-fluoro-3-methoxyphenyl)-5,6,7,8-tetrahydro-N-[4-(2-methyl-4-pyridinyl)phenyl]-[1,2,4]triazolo[1,5-a]pyridin-2-amine], the melting point amounted to 150.6 °C. Further, the pIC50 in data set [1] is 7.40. The negative-log IC50 (pIC50) in data set [2] was less than 4.82.
In the same order, the values of `COc1cc(Nc2nc3n(n2)CCCC3c2cccc(F)c2)ccc1-c1ccnc(C)c1` (stereo not drawn) [Compound 44, 8-(3-fluorophenyl)-5,6,7,8-tetrahydro-N-[3-methoxy-4-(2-methyl-4-pyridinyl)phenyl]-[1,2,4]triazolo[1,5-a]pyridin-2-amine] are 170.1 °C, 7.41 and less than 5.00.
